Paper PMC6277434, “Discovery of a potent HMG-CoA reductase degrader that eliminates statin-induced reductase accumulation and lowers cholesterol” (Nature Communications, 2018)

Legend:
HMGCR (TM1-8)-GFP [1] = molecular target: T1, HMGCR (TM1-8)-GFP (Cricetulus griseus, UniProt P00347); assay: HMGCR (TM1-8)-GFP fluorescent assay (high-content imaging) in CHG cells; details: read-out: Mean (HMGCR (TM1-8)-GFP signal relative to 0 μM = 100)
T1 sequence (P00347 1-346): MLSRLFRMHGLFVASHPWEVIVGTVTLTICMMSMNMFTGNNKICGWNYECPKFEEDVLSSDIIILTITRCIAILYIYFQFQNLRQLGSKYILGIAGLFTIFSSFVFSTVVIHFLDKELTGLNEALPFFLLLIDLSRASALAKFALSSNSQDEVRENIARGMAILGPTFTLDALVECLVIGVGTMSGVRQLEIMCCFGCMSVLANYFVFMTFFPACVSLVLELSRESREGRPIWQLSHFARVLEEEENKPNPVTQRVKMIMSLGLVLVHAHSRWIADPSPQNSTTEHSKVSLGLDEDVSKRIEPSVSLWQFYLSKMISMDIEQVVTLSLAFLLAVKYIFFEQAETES
Description: (§1) We thus generated a cell line stably expressing the transmembrane domain of HMGCR fused with green fluorescent protein (GFP) as a reporter (HMGCR (TM1-8)-GFP) (Fig. 2a).
(§2) CHO-7 cells were transfected with pCMV-HMGCR (TM1-8)-GFP using FuGENE HD. Twenty-four hours, cells were switched to medium B supplemented with 5% FBS and selected in the presence of 1 mg ml^−1 G418 for 2 weeks. Surviving colonies were isolated and confirmed for GFP expression by immunoblotting and immunofluorescence. The resulting CHO-7/HMGCR (TM1-8)-GFP stable cell line (CHG) was maintained in medium B supplemented with 5% FBS and 200 μg ml^−1 G418.
(§3) CHG cells were treated as described in figure legends. Briefly, cells were seeded at day 0 in 96-well black plate (3904, Corning) at a density of 1.5 × 10^4 cells per well, in medium B containing with 5% LPDS. Day 1, corresponding compounds were added as figure legends described in medium B with 5% LPDS, 1 μM lovastatin, 50 μM sodium mevalonate for 16 h. Then cells were fixed with 4% paraformaldehyde for 20 min, washed with PBS for three times, and stained with 2 μg ml^−1 Hoechst 33342.
(§4) The fluorescent images (GFP and Hoechst channel) were captured using an Operatta High-Content Imaging System (PerkinElmer) with a ×20 objective. The cytoplasmic GFP fluorescence was measured with the Harmony Software (PerkinElmer). Five random selected filed per well were captured, and about 3000 cells were used to determine the mean cytoplasmic GFP fluorescent intensity per cell after subtracting background GFP intensity. The average GFP intensity of DMSO-treated cells was defined as 100.

HMGCR (TM1-8)-GFP [2] = molecular target: T1, HMGCR (TM1-8)-GFP
Description: as §1, §2, §3, §4

SMILES: C[C@H](CCCCC(=O)O)C1CCC2C3C(CC[C@@]21C)[C@@]1(C)CC[C@H](O)C(C)(C)C1=C[C@@H]3O (stereo partly drawn) [Compound 92]
- remaining activity at 0.156 µM (HMGCR (TM1-8)-GFP [1]): 104%
- remaining activity at 0.313 µM (HMGCR (TM1-8)-GFP [1]): 98.4%
- remaining activity at 0.625 µM (HMGCR (TM1-8)-GFP [1]): 98.7%
- remaining activity at 1.25 µM (HMGCR (TM1-8)-GFP [1]): 96.3%
- remaining activity at 2.5 µM (HMGCR (TM1-8)-GFP [1]): 87%
- remaining activity at 5 µM (HMGCR (TM1-8)-GFP [1]): 71.8%
- remaining activity at 10 µM (HMGCR (TM1-8)-GFP [1]): 58%
- DC50 (HMGCR (TM1-8)-GFP [2]): 12300 nM

SMILES: C[C@H](CCCCC(C)(C)O)C1CCC2C3C(CC[C@@]21C)[C@@]1(C)CC[C@H](O)C(C)(C)C1=C[C@@H]3O (stereo partly drawn) [Compound 100]
- remaining activity at 0.156 µM (HMGCR (TM1-8)-GFP [1]): 78.6%
- remaining activity at 0.313 µM (HMGCR (TM1-8)-GFP [1]): 69.4%
- remaining activity at 0.625 µM (HMGCR (TM1-8)-GFP [1]): 51.6%
- remaining activity at 1.25 µM (HMGCR (TM1-8)-GFP [1]): 33.5%
- remaining activity at 2.5 µM (HMGCR (TM1-8)-GFP [1]): 21.6%
- remaining activity at 5 µM (HMGCR (TM1-8)-GFP [1]): 14.8%
- remaining activity at 10 µM (HMGCR (TM1-8)-GFP [1]): 12.4%
- DC50 (HMGCR (TM1-8)-GFP [2]): 510 nM

SMILES: CCC(O)(CC)CCCC[C@@H](C)C1CCC2C3C(CC[C@@]21C)[C@@]1(C)CC[C@H](O)C(C)(C)C1=C[C@@H]3O (stereo partly drawn) [Compound 101]
- remaining activity at 0.156 µM (HMGCR (TM1-8)-GFP [1]): 86.6%
- remaining activity at 0.313 µM (HMGCR (TM1-8)-GFP [1]): 74%
- remaining activity at 0.625 µM (HMGCR (TM1-8)-GFP [1]): 52.3%
- remaining activity at 1.25 µM (HMGCR (TM1-8)-GFP [1]): 35.6%
- remaining activity at 2.5 µM (HMGCR (TM1-8)-GFP [1]): 22.8%
- remaining activity at 5 µM (HMGCR (TM1-8)-GFP [1]): 15.2%
- remaining activity at 10 µM (HMGCR (TM1-8)-GFP [1]): 15.2%
- DC50 (HMGCR (TM1-8)-GFP [2]): 590 nM

SMILES: C=CCC(O)(CC=C)CCCC[C@@H](C)C1CCC2C3C(CC[C@@]21C)[C@@]1(C)CC[C@H](O)C(C)(C)C1=C[C@@H]3O (stereo partly drawn) [Compound 102]
- remaining activity at 0.156 µM (HMGCR (TM1-8)-GFP [1]): 108%
- remaining activity at 0.313 µM (HMGCR (TM1-8)-GFP [1]): 104%
- remaining activity at 0.625 µM (HMGCR (TM1-8)-GFP [1]): 86.9%
- remaining activity at 1.25 µM (HMGCR (TM1-8)-GFP [1]): 56.5%
- remaining activity at 2.5 µM (HMGCR (TM1-8)-GFP [1]): 37.2%
- remaining activity at 5 µM (HMGCR (TM1-8)-GFP [1]): 31.7%
- remaining activity at 10 µM (HMGCR (TM1-8)-GFP [1]): 31.8%
- DC50 (HMGCR (TM1-8)-GFP [2]): 1920 nM

SMILES: CC(O)CCCC[C@@H](C)C1CCC2C3C(CC[C@@]21C)[C@@]1(C)CC[C@H](O)C(C)(C)C1=C[C@@H]3O (stereo partly drawn) [Compound 107]
- remaining activity at 0.156 µM (HMGCR (TM1-8)-GFP [1]): 90.7%
- remaining activity at 0.313 µM (HMGCR (TM1-8)-GFP [1]): 83.1%
- remaining activity at 0.625 µM (HMGCR (TM1-8)-GFP [1]): 72.6%
- remaining activity at 1.25 µM (HMGCR (TM1-8)-GFP [1]): 51.8%
- remaining activity at 2.5 µM (HMGCR (TM1-8)-GFP [1]): 26.9%
- remaining activity at 5 µM (HMGCR (TM1-8)-GFP [1]): 17.1%
- remaining activity at 10 µM (HMGCR (TM1-8)-GFP [1]): 13.1%
- DC50 (HMGCR (TM1-8)-GFP [2]): 1290 nM

SMILES: CCC(O)CCCC[C@@H](C)C1CCC2C3C(CC[C@@]21C)[C@@]1(C)CC[C@H](O)C(C)(C)C1=C[C@@H]3O (stereo partly drawn) [Compound 108]
- remaining activity at 0.156 µM (HMGCR (TM1-8)-GFP [1]): 90.7%
- remaining activity at 0.313 µM (HMGCR (TM1-8)-GFP [1]): 77.2%
- remaining activity at 0.625 µM (HMGCR (TM1-8)-GFP [1]): 56.5%
- remaining activity at 1.25 µM (HMGCR (TM1-8)-GFP [1]): 39.2%
- remaining activity at 2.5 µM (HMGCR (TM1-8)-GFP [1]): 29.4%
- remaining activity at 5 µM (HMGCR (TM1-8)-GFP [1]): 25.5%
- remaining activity at 10 µM (HMGCR (TM1-8)-GFP [1]): 18.6%
- DC50 (HMGCR (TM1-8)-GFP [2]): 1030 nM

SMILES: C=CCC(O)CCCC[C@@H](C)C1CCC2C3C(CC[C@@]21C)[C@@]1(C)CC[C@H](O)C(C)(C)C1=C[C@@H]3O (stereo partly drawn) [Compound 109]
- remaining activity at 0.156 µM (HMGCR (TM1-8)-GFP [1]): 91%
- remaining activity at 0.313 µM (HMGCR (TM1-8)-GFP [1]): 76.5%
- remaining activity at 0.625 µM (HMGCR (TM1-8)-GFP [1]): 54.8%
- remaining activity at 1.25 µM (HMGCR (TM1-8)-GFP [1]): 36.4%
- remaining activity at 2.5 µM (HMGCR (TM1-8)-GFP [1]): 23.5%
- remaining activity at 5 µM (HMGCR (TM1-8)-GFP [1]): 18.8%
- remaining activity at 10 µM (HMGCR (TM1-8)-GFP [1]): 25.2%
- DC50 (HMGCR (TM1-8)-GFP [2]): 910 nM

SMILES: C[C@H](CCCCCCO)C1CCC2C3C(CC[C@@]21C)[C@@]1(C)CC[C@H](O)C(C)(C)C1=C[C@@H]3O (stereo partly drawn) [Compound 113]
- remaining activity at 0.156 µM (HMGCR (TM1-8)-GFP [1]): 94.7%
- remaining activity at 0.313 µM (HMGCR (TM1-8)-GFP [1]): 91.3%
- remaining activity at 0.625 µM (HMGCR (TM1-8)-GFP [1]): 72.7%
- remaining activity at 1.25 µM (HMGCR (TM1-8)-GFP [1]): 57.4%
- remaining activity at 2.5 µM (HMGCR (TM1-8)-GFP [1]): 35.8%
- remaining activity at 5 µM (HMGCR (TM1-8)-GFP [1]): 22%
- remaining activity at 10 µM (HMGCR (TM1-8)-GFP [1]): 24.1%
- DC50 (HMGCR (TM1-8)-GFP [2]): 1720 nM

SMILES: C[C@H](CCCCCC(C)(C)O)C1CCC2C3C(CC[C@@]21C)[C@@]1(C)CC[C@H](O)C(C)(C)C1=C[C@@H]3O (stereo partly drawn) [Compound 117]
- remaining activity at 0.156 µM (HMGCR (TM1-8)-GFP [1]): 92%
- remaining activity at 0.313 µM (HMGCR (TM1-8)-GFP [1]): 72.4%
- remaining activity at 0.625 µM (HMGCR (TM1-8)-GFP [1]): 47.7%
- remaining activity at 1.25 µM (HMGCR (TM1-8)-GFP [1]): 29.5%
- remaining activity at 2.5 µM (HMGCR (TM1-8)-GFP [1]): 20.4%
- remaining activity at 5 µM (HMGCR (TM1-8)-GFP [1]): 16.1%
- remaining activity at 10 µM (HMGCR (TM1-8)-GFP [1]): 20.4%
- DC50 (HMGCR (TM1-8)-GFP [2]): 710 nM

SMILES: CCC(O)(CC)CCCCC[C@@H](C)C1CCC2C3C(CC[C@@]21C)[C@@]1(C)CC[C@H](O)C(C)(C)C1=C[C@@H]3O (stereo partly drawn) [Compound 118]
- remaining activity at 0.156 µM (HMGCR (TM1-8)-GFP [1]): 93.8%
- remaining activity at 0.313 µM (HMGCR (TM1-8)-GFP [1]): 76.6%
- remaining activity at 0.625 µM (HMGCR (TM1-8)-GFP [1]): 55.5%
- remaining activity at 1.25 µM (HMGCR (TM1-8)-GFP [1]): 38.3%
- remaining activity at 2.5 µM (HMGCR (TM1-8)-GFP [1]): 26.4%
- remaining activity at 5 µM (HMGCR (TM1-8)-GFP [1]): 20.4%
- remaining activity at 10 µM (HMGCR (TM1-8)-GFP [1]): 21.8%
- DC50 (HMGCR (TM1-8)-GFP [2]): 970 nM

SMILES: C=CCC(O)(CC=C)CCCCC[C@@H](C)C1CCC2C3C(CC[C@@]21C)[C@@]1(C)CC[C@H](O)C(C)(C)C1=C[C@@H]3O (stereo partly drawn) [Compound 119]
- remaining activity at 0.156 µM (HMGCR (TM1-8)-GFP [1]): 92.9%
- remaining activity at 0.313 µM (HMGCR (TM1-8)-GFP [1]): 96%
- remaining activity at 0.625 µM (HMGCR (TM1-8)-GFP [1]): 91.6%
- remaining activity at 1.25 µM (HMGCR (TM1-8)-GFP [1]): 81.1%
- remaining activity at 2.5 µM (HMGCR (TM1-8)-GFP [1]): 62.7%
- remaining activity at 5 µM (HMGCR (TM1-8)-GFP [1]): 42.5%
- remaining activity at 10 µM (HMGCR (TM1-8)-GFP [1]): 28.9%
- DC50 (HMGCR (TM1-8)-GFP [2]): 4130 nM

SMILES: CC(O)CCCCC[C@@H](C)C1CCC2C3C(CC[C@@]21C)[C@@]1(C)CC[C@H](O)C(C)(C)C1=C[C@@H]3O (stereo partly drawn) [Compound 124]
- remaining activity at 0.156 µM (HMGCR (TM1-8)-GFP [1]): 88%
- remaining activity at 0.313 µM (HMGCR (TM1-8)-GFP [1]): 78.3%
- remaining activity at 0.625 µM (HMGCR (TM1-8)-GFP [1]): 62.2%
- remaining activity at 1.25 µM (HMGCR (TM1-8)-GFP [1]): 38.2%
- remaining activity at 2.5 µM (HMGCR (TM1-8)-GFP [1]): 19.5%
- remaining activity at 5 µM (HMGCR (TM1-8)-GFP [1]): 14.7%
- remaining activity at 10 µM (HMGCR (TM1-8)-GFP [1]): 21.8%
- DC50 (HMGCR (TM1-8)-GFP [2]): 920 nM
